{"source": "patent US12421223B2", "about": "“Compounds and compositions for treating conditions associated with NLRP activity” (Novartis AG, priority 2018, dated 2025)", "system": "IL-1β production in PMA-differentiated THP-1 cells", "assay": "IL-1β production in PMA-differentiated THP-1 cells stimulated with gramicidin (hTHP-1 assay, 2% fetal bovine serum)", "format": "cell-based", "conditions": "Homo sapiens, hTHP-1 assay containing 2% fetal bovine serum, gramicidin 5 μM, IL-1β by HTRF, read-out: THP-1 IC50 (Average IC50 of compounds in hTHP-1 assay)", "description": "The following protocol is suitable for testing the activity of the compounds disclosed herein.\nProcedure 1: IL-1β Production in PMA-Differentiated THP-1 Cells Stimulated with Gramicidin.\nTHP-1 cells were purchased from the American Type Culture Collection and sub-cultured according to instructions from the supplier. Cells were cultured in complete RPMI 1640 (containing 10% heat inactivated FBS, penicillin (100 units/ml) and streptomycin (100 μg/ml)), and maintained in log phase prior to experimental setup. Prior to the experiment, compounds were dissolved in dimethyl sulfoxide (DMSO) to generate a 30 mM stock. The compound stock was first pre-diluted in DMSO to 3, 0.34, 0.042 and 0.0083 mM intermediate concentrations and subsequently spotted using Echo550 liquid handler into an empty 384-well assay plate to achieve desired final concentration (e.g. 100, 33, 11, 3.7, 1.2, 0.41, 0.14, 0.046, 0.015, 0.0051, 0.0017 μM). DMSO was backfilled in the plate to achieve a final DMSO assay concentration of 0.37%. The plate was then sealed and stored at room temperature until required.\nTHP-1 cells were treated with PMA (Phorbol 12-myristate 13-acetate) (20 ng/ml) for 16-18 hours. On the day of the experiment the media was removed and adherent cells were detached with trypsin for 5 minutes. Cells were then harvested, washed with complete RPMI 1640, spun down, and resuspended in RPMI 1640 (containing 2% heat inactivated FBS, penicillin (100 units/ml) and streptomycin (100 μg/ml). The cells were plated in the 384-well assay plate containing the spotted compounds at a density of 50,000 cells/well (final assay volume 50 μl). Cells were incubated with compounds for 1 hour and then stimulated with gramicidin (5 μM) (Enzo) for 2 hours. Plates were then centrifuged at 340 g for 5 min. Cell free supernatant (40 μL) was collected using a 96-channel PlateMaster (Gilson) and the production of IL-1β was evaluated by HTRF (cisbio). The plates were incubated for 18 h at 4° C. and read using the preset HTRF program (donor emission at 620 nm, acceptor emission at 668 nm) of the SpectraMax i3x spectrophotometer (Molecular Devices, software SoftMax 6). A vehicle only control and a dose titration of CRID3 (100-0.0017 μM) were run concurrently with each experiment.\nProcedure 2: IL-1β Production in PMA-Differentiated THP-1 Cells Stimulated with Gramicidin.\nTHP-1 cells were purchased from the American Type Culture Collection and sub-cultured according to instructions from the supplier. Prior to experiments, cells were cultured in complete RPMI 1640 (containing 10% heat inactivated FBS, penicillin (100 units/ml) and streptomycin (100 μg/ml)), and maintained in log phase prior to experimental setup. Prior to the experiment THP-1 were treated with PMA (Phorbol 12-myristate 13-acetate) (20 ng/ml) for 16-18 hours. Compounds were dissolved in dimethyl sulfoxide (DMSO) to generate a 30 mM stock. On the day of the experiment the media was removed and adherent cells were detached with trypsin for 5 minutes. Cells were then harvested, washed with complete RPMI 1640, spun down, resuspended in RPMI 1640 (containing 2% heat inactivated FBS, penicillin (100 units/ml) and streptomycin (100 μg/ml). The cells were plated in a 384-well plate at a density of 50,000 cells/well (final assay volume 50 μl). Compounds were first dissolved in assay medium to obtain a 5× top concentration of 500 μM. 10 step dilutions (1:3) were then undertaken in assay medium containing 1.67% DMSO. 5× compound solutions were added to the culture medium to achieve desired final concentration (e.g. 100, 33, 11, 3.7, 1.2, 0.41, 0.14, 0.046, 0.015, 0.0051, 0.0017 μM). Final DMSO concentration was at 0.37%. Cells were incubated with compounds for 1 hour and then stimulated with gramicidin (5 μM) (Enzo) for 2 hours. Plates were then centrifuged at 340 g for 5 min. Cell free supernatant (40 μL) was collected using a 96-channel PlateMaster (Gilson) and the production of IL-1β was evaluated by HTRF (cisbio). […]", "note": "pIC50: −log10 of the molar value.", "data": [{"smiles": "CC(C)(O)c1ncc(C(=O)c2ccn(-c3c4c(cc5c3CCC5)CCC4)n2)s1", "note": "[Compound 118]", "values": [{"measurement": "pIC50", "result": "4.52 to 5.30"}]}, {"smiles": "CC(C)(O)c1ncc(C(CNC(=O)OCc2ccccc2)c2cnn(-c3c4c(cc5c3CCC5)CCC4)c2)s1", "note": "(stereo not drawn) [Compound 101, Benzyl (2-(1-(1,2,3,5,6,7-hexahydro-s-indacen-4-yl)-1H-pyrazol-4-yl)-2-(2-(2-hydroxypropan-2-yl)thiazol-5-yl)ethyl) carbamate]", "values": [{"measurement": "pIC50", "result": "5.30 to 6.00"}]}, {"smiles": "CC(C)(O)c1ncc(C(NC(=O)OCc2ccccc2)c2ccn(-c3c4c(cc5c3CCC5)CCC4)n2)s1", "note": "(stereo not drawn) [Compound 102, Benzyl (1-(1,2,3,5,6,7-hexahydros-indacen-4-yl)-1H-pyrazol-3-yl)(2-(2-hydroxypropan-2-yl)thiazol-5-yl)methylcarbamate]", "values": [{"measurement": "pIC50", "result": "4.52 to 5.30"}]}, {"smiles": "CC(C)(O)c1ncc([C@@H](NC(=O)OCc2ccccc2)c2ccn(-c3c4c(cc5c3CCC5)CCC4)n2)s1", "note": "(single isomer, unassigned) [Compound 116]", "values": [{"measurement": "pIC50", "result": "4.52 to 5.30"}]}, {"smiles": "CC(C)(O)c1ncc(C(=O)c2ccnn2-c2c3c(cc4c2CCC4)CCC3)s1", "note": "[Compound 103]", "values": [{"measurement": "pIC50", "result": "4.52 to 5.30"}]}, {"smiles": "O=C(NCc1cnn(-c2c3c(cc4c2CCC4)CCC3)c1)OCc1ccccc1", "note": "[Compound 200, Benzyl ((1-(1,2,3,5,6,7-hexahydro-s-indacen-4-yl)-1H-pyrazol-4-yl)methyl)carbamate]", "values": [{"measurement": "pIC50", "result": "4.52 to 5.30"}]}, {"smiles": "CC(C)(O)c1cnc(S(=O)(=O)c2cnn(-c3c4c(cc5c3CCC5)CCC4)c2)s1", "note": "[Compound 104, 2-(2-((1-(1,2,3,5,6,7-hexahydro-s-indacen-4-yl)-1H-pyrazol-4-yl)sulfonyl)thiazol-5-yl)propan-2-ol]", "values": [{"measurement": "pIC50", "result": "4.52 to 5.30"}]}, {"smiles": "CC(C)(O)c1ncc(S(=O)(=O)c2cnn(-c3c4c(cc5c3CCC5)CCC4)c2)s1", "note": "[Compound 115, 2-(5-((1-(1,2,3,5,6,7-hexahydro-s-indacen-4-yl)-1H-pyrazol-4-yl)sulfonyl)thiazol-2-yl)propan-2-ol]", "values": [{"measurement": "pIC50", "result": "4.52 to 5.30"}]}, {"smiles": "CC(C)(O)c1ncc(C(CNC(=O)c2ccccc2)c2cnn(-c3c4c(cc5c3CCC5)CCC4)c2)s1", "note": "(stereo not drawn) [Compound 114]", "values": [{"measurement": "pIC50", "result": "4.52 to 5.30"}]}]}
